According to US6914045B2, “Glycopeptide antibiotics” (Wyeth Holdings Corporation, priority 2001, dated 2005):
In brackets after ≈: the same amount, converted by molar mass.

Assays:
Experiment in all cases: in vitro antibacterial evaluation, MIC by broth dilution
Format in all cases: cell-based
Escherichia coli = conditions: 18 hours at 35° C.
Staphylococcus sp. = conditions: broth dilution, 18 hours at 35° C.
How it was run: (§1)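 MIC, the lowest antibiotic concentration preventing growth, was read across 64-0.06 μg/mL with 5×10^5 CFU/mL inoculum. Method followed NCCLS M7-A2 broth dilution using Mueller-Hinton II; Gram-positive strains covered recent methicillin-, penicillin- and/or vancomycin-resistant clinical isolates.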

Enterococcus sp. = conditions: broth dilution, 18 hours at 35° C.
How it was run: as §1

Streptococcus sp. = conditions: broth dilution, 18 hours at 35° C.
How it was run: as §1

MIC Escherichia coli (ATCC 25922) (Escherichia coli): 32 µg/mL (≈ 22.4 µM)
MIC Escherichia coli (GC 4559) (Escherichia coli): 64 µg/mL (≈ 44.7 µM)
MIC Escherichia coli (GC 4560) (Escherichia coli): 2 µg/mL (≈ 1.4 µM)
MIC Staphylococcus aureus (ATCC 29213) (Staphylococcus sp.; strain ATCC 29213): 1 µg/mL (≈ 0.699 µM)
MIC Staphylococcus aureus (GC 1131) (Staphylococcus sp.; strain GC 1131): 2 µg/mL (≈ 1.4 µM)
MIC Staphylococcus aureus (GC 3051) (Staphylococcus sp.; strain GC 3051): 2 µg/mL (≈ 1.4 µM)
MIC Staphylococcus aureus (GC 3053) (Staphylococcus sp.; strain GC 3053): 1 µg/mL (≈ 0.699 µM)
MIC Staphylococcus aureus (GC 4541) (Staphylococcus sp.; strain GC 4541): 1 µg/mL (≈ 0.699 µM)
MIC Staphylococcus aureus (GC 4542) (Staphylococcus sp.; strain GC 4542): 1 µg/mL (≈ 0.699 µM)
MIC Staphylococcus aureus-SMITH (GC 4543) (Staphylococcus sp.; strain GC 4543): 1 µg/mL (≈ 0.699 µM)
MIC Staphylococcus aureus (GC 4544) (Staphylococcus sp.; strain GC 4544): 1 µg/mL (≈ 0.699 µM)
MIC Staphylococcus aureus (GC 4545) (Staphylococcus sp.; strain GC 4545): 1 µg/mL (≈ 0.699 µM)
MIC Coagulase Negative Staphylococcus (GC 4547) (Staphylococcus sp.; strain GC 4547): 1 µg/mL (≈ 0.699 µM)
MIC Coagulase Negative Staphylococcus (GC 4548) (Staphylococcus sp.; strain GC 4548): 0.5 µg/mL (≈ 0.349 µM)
MIC Coagulase Negative Staphylococcus (GC 4549) (Staphylococcus sp.; strain GC 4549): 0.5 µg/mL (≈ 0.349 µM)
MIC Coagulase Negative Staphylococcus (GC 4551) (Staphylococcus sp.; strain GC 4551): 4 µg/mL (≈ 2.79 µM)
MIC Enterococcus avium (GC 4558) (Enterococcus sp.): 1 µg/mL (≈ 0.699 µM)
MIC Enterococcus faecalis (ATCC 29212) (Enterococcus sp.): 4 µg/mL (≈ 2.79 µM)
MIC Enterococcus faecalis (GC 2242) (Enterococcus sp.): 4 µg/mL (≈ 2.79 µM)
MIC Enterococcus faecalis (GC 2691) (Enterococcus sp.): 2 µg/mL (≈ 1.4 µM)
MIC Enterococcus faecalis (GC 3059) (Enterococcus sp.): 2 µg/mL (≈ 1.4 µM)
MIC Enterococcus faecalis (GC 4552) (Enterococcus sp.): 4 µg/mL (≈ 2.79 µM)
MIC Enterococcus faecalis (GC 4553) (Enterococcus sp.): 4 µg/mL (≈ 2.79 µM)
MIC Enterococcus faecalis (GC 4554) (Enterococcus sp.): 4 µg/mL (≈ 2.79 µM)
MIC Enterococcus faecalis (GC 6189) (Enterococcus sp.): 2 µg/mL (≈ 1.4 µM)
MIC Enterococcus faecium (GC 2243) (Enterococcus sp.): 4 µg/mL (≈ 2.79 µM)
MIC Enterococcus faecium (GC 4556) (Enterococcus sp.): 4 µg/mL (≈ 2.79 µM)
MIC Enterococcus faecium (GC 4557) (Enterococcus sp.): 2 µg/mL (≈ 1.4 µM)
MIC Enterococcus faecalis (ATCC 29212) (Enterococcus sp.; inoculum 5×10^5 CFU/mL, strain ATCC 29212): 4 µg/mL (≈ 2.79 µM)
MIC Enterococcus faecalis (GC 2242) (Enterococcus sp.; inoculum 5×10^5 CFU/mL, strain GC 2242): 4 µg/mL (≈ 2.79 µM)
MIC Enterococcus faecium (GC 2243) (Enterococcus sp.; inoculum 5×10^5 CFU/mL, strain GC 2243): 4 µg/mL (≈ 2.79 µM)
MIC Enterococcus faecalis (GC 2691) (Enterococcus sp.; inoculum 5×10^5 CFU/mL, strain GC 2691): 2 µg/mL (≈ 1.4 µM)
MIC Enterococcus faecalis (GC 3059) (Enterococcus sp.; inoculum 5×10^5 CFU/mL, strain GC 3059): 2 µg/mL (≈ 1.4 µM)
MIC Enterococcus faecalis (GC 4552) (Enterococcus sp.; inoculum 5×10^5 CFU/mL, strain GC 4552): 4 µg/mL (≈ 2.79 µM)
MIC Enterococcus faecalis (GC 4553) (Enterococcus sp.; inoculum 5×10^5 CFU/mL, strain GC 4553): 4 µg/mL (≈ 2.79 µM)
MIC Enterococcus faecalis (GC 4554) (Enterococcus sp.; inoculum 5×10^5 CFU/mL, strain GC 4554): 4 µg/mL (≈ 2.79 µM)
MIC Enterococcus faecium (GC 4556) (Enterococcus sp.; inoculum 5×10^5 CFU/mL, strain GC 4556): 4 µg/mL (≈ 2.79 µM)
MIC Enterococcus faecium (GC 4557) (Enterococcus sp.; inoculum 5×10^5 CFU/mL, strain GC 4557): 2 µg/mL (≈ 1.4 µM)
MIC Enterococcus avium (GC 4558) (Enterococcus sp.; inoculum 5×10^5 CFU/mL, strain GC 4558): 1 µg/mL (≈ 0.699 µM)
MIC Enterococcus faecalis (GC 6189) (Enterococcus sp.; inoculum 5×10^5 CFU/mL, strain GC 6189): 2 µg/mL (≈ 1.4 µM)
MIC Streptococcus agalactiae (GC 4564) (Streptococcus sp.): <0.12 µg/mL
MIC Streptococcus pneumoniae (ATCC 6301) (Streptococcus sp.): <0.12 µg/mL
MIC Streptococcus pneumoniae (GC 1894) (Streptococcus sp.): <0.12 µg/mL
MIC Streptococcus pneumoniae (GC 4565) (Streptococcus sp.): <0.12 µg/mL
MIC Streptococcus pyogenes (GC 4563) (Streptococcus sp.): <0.12 µg/mL
MIC Streptococcus pneumoniae (ATCC 6301) (Streptococcus sp.; inoculum 5×10^5 CFU/mL, strain ATCC 6301): <0.12 µg/mL
MIC Streptococcus pneumoniae (GC 1894) (Streptococcus sp.; inoculum 5×10^5 CFU/mL, strain GC 1894): <0.12 µg/mL
MIC Streptococcus pyogenes (GC 4563) (Streptococcus sp.; inoculum 5×10^5 CFU/mL, strain GC 4563): <0.12 µg/mL
MIC Streptococcus agalactiae (GC 4564) (Streptococcus sp.; inoculum 5×10^5 CFU/mL, strain GC 4564): <0.12 µg/mL
MIC Streptococcus pneumoniae (GC 4565) (Streptococcus sp.; inoculum 5×10^5 CFU/mL, strain GC 4565): <0.12 µg/mL
SMILES: CC(c1ccccc1)C1NC(=O)CNC(=O)C(CO)NC(=O)C(C(O)C2CNC(=N)N2C2OC(CO)C(O)C(O)C2O)NC(=O)C(C(O)C2CNC(=N)N2)NC(=O)C(Cc2ccc(OC3OC(CO)C(OC4OC5COC6(CC(C)(C)CC(C)(C)C6)OC5C(O)C4O)C(O)C3O)cc2)NC1=O (stereo not drawn) [Example 207]
MIC Staphylococcus haemolyticus (GC 4546) (Staphylococcus sp.; strain GC 4546): 1 µg/mL (≈ 0.699 µM)
